Data on 14 molecules can be found in publication PMC9865501, “Design and Synthesis of Scopoletin Sulfonate Derivatives as Potential Insecticidal Agents” (Molecules, 2023).

One series addresses T1, AChE (Electrophorus electricus, UniProt O42275).
T1 construct: purchased Sigma–Aldrich Chemie GmbH (Buchs, Switzerland)
In words: In vitro AChE inhibition (ELISA kit). The series is classed as biochemical, electric eels. The protocol:
The effects of the title compounds on the in vitro AChE activity were evaluated using ELISA technology. AChE derived from electric eels was purchased from Sigma–Aldrich Chemie GmbH (Buchs, Switzerland). Briefly, the AChE was preincubated with different concentrations (500, 250, 125, 62.5, 31.25, 15.625, and 7.8125 μg/mL) of the compounds in PBS solution. Then, the AChE activities after incubation were measured using the corresponding ELISA kit according to the manufacturer’s instructions (Jiancheng, Nanjing, China). The detection was performed using a multifunctional microplate reader (SpectraMax® M2e, Thermo Scientific, Waltham, MA, USA).

Series [1] in a line: Toxicity to brine shrimp Artemia. The class given is in vivo, Artemia salina. The note with it: Artemia salina (brine shrimp), in vivo, other: immersion in test solution. The protocol: The toxicity of the title compounds to the brine shrimp A. salina was evaluated according to the reported method. […] Subsequently, approximately 50 hatched (10 h instar) brine shrimp were transferred into each pore of a 24-well plate filled with the test solutions. Finally, the brine shrimp were reared in an illumination incubator (28 ± 1 °C, 12 h light and 12 h dark alternatively) for 24 h. DMSO—1% Tween 20 was used as a blank control. Each treatment was conducted in triplicate. The dead insects were recorded under a stereoscope, and the corrected mortalities of A. salina treated with the compounds were calculated.

The next series relates to T. cinnabarinus. The series is described as follows: Acaricidal activity against T. cinnabarinus (leaf spray on broad bean, 72 h). The class given is in vivo, Tetranychus cinnabarinus. The note with it: for LC50: Tetranychus cinnabarinus, 72 h. The protocol:
An acaricidal activity assay of the test compounds against mites was conducted according to procedures outlined in the literature. […] The stock solution was then diluted to a series of working concentrations with 1% Tween 80 to obtain the test solutions. Subsequently, the leaves of two-leaf-stage broad beans were inoculated with 150–200 female adult T. cinnabarinus mites and reared in a greenhouse (26 ± 1 °C, 75–80% RH, 16 h light and 8 h dark alternatively) for 8 h. The test solution of the compound was then evenly sprayed on these leaves, which were then cultivated in the greenhouse for 72 h. In the blank control group, Tween 80 (1%) was used instead of the treatment solution. Cyetpyrafen (CAS NO. 1253429-01-4) was used as a positive control. Each treatment was repeated three times. The dead insects were recorded under a stereoscope, and the corrected mortalities of mites treated with the compounds were calculated.

Setting [2] is: read-out: Lethal activity to Artemia LC50.
The mark [3] stands for this setting: 12 h, read-out: Lethal activity to Artemia LC50.
Where [4] appears, read: Table S1, read-out: Acaricidal activity LC50.
Setting [5] is: main text and Figure 5, read-out: LC50 against T. cinnabarinus.

The structures appear in SMILES notation. Converted amounts (≈) assume the structure as drawn. Like-named read-outs stand apart in the source and are kept apart here.

T1 sequence (O42275 24-633): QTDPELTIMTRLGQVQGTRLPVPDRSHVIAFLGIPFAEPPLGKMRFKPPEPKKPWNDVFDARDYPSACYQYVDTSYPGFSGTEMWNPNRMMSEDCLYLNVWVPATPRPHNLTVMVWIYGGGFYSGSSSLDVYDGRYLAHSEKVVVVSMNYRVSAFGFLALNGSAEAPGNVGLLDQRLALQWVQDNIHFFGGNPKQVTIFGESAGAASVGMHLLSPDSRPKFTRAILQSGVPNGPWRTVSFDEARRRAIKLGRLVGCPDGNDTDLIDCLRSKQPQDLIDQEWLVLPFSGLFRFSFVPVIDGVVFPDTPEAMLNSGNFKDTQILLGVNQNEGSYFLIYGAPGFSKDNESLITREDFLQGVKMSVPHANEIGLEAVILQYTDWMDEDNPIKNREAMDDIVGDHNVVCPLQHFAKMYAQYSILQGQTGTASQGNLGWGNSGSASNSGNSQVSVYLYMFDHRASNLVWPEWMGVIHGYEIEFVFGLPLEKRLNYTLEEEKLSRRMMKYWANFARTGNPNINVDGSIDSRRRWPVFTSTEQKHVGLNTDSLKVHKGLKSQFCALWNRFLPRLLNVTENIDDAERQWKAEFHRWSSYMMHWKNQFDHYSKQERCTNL

Broadly, the IC50 is the point on the concentration scale where inhibition reaches its midpoint. The low end stands for inhibition by little substance, the high end for a need for much substance. Broadly, the LC50 is the concentration lethal to half of the exposed cells or organisms. For the molecule `COc1cc2ccc(=O)oc2cc1O` [Compound 4, 7-hydroxy-6-methoxy-2H-chromen-2-one], the IC50 at AChE is 551 µM. In addition, the LC50 at 6 h in series [1] (setting [2]) is 27.2 µg/mL (≈ 142 µM). Besides, the LC50 at 12 h in series [1] (setting [3]) was found to be 14.2 µg/mL (≈ 73.9 µM). In the series on T. cinnabarinus (setting [4]), the LC50 is 144 µg/mL (≈ 749 µM).

The molecule `COc1cc2ccc(=O)oc2cc1OS(=O)(=O)c1ccccc1` [Compound 4a] had an IC50 at AChE of 431 µM. Also, the LC50 at 6 h in series [1] (setting [2]) was found to be 47 µg/mL (≈ 141 µM). The LC50 at 12 h in series [1] (setting [3]) came to 29.1 µg/mL (≈ 87.6 µM). Besides, in the series with T. cinnabarinus (setting [4]), the LC50 turned out to be 448 µg/mL (≈ 1350 µM).

Regarding `COc1ccc(S(=O)(=O)Oc2cc3oc(=O)ccc3cc2OC)cc1` [Compound 4b], at AChE, the IC50 is 304 µM. For the same molecule, the LC50 at 6 h in series [1] (setting [2]) came out at 38.6 µg/mL (≈ 107 µM). Further, the median lethal concentration (LC50) at 12 h in series [1] (setting [3]) is 18.2 µg/mL (≈ 50.2 µM). Further, the LC50 in the series with T. cinnabarinus (setting [4]) worked out at 209 µg/mL (≈ 577 µM).

`COc1cc2ccc(=O)oc2cc1OS(=O)(=O)c1ccc(F)cc1` [Compound 4c]: the IC50 against AChE was 362 µM. Further, the LC50 at 6 h in series [1] (setting [2]) worked out at 91.5 µg/mL (≈ 261 µM). For the same molecule, the LC50 at 12 h in series [1] (setting [3]) worked out at 56.3 µg/mL (≈ 161 µM). Further, the LC50 in the series with T. cinnabarinus (setting [4]) amounted to 318 µg/mL (≈ 908 µM).

The molecule `COc1cc2ccc(=O)oc2cc1OS(=O)(=O)c1ccc(Cl)cc1` [Compound 4d] gave an IC50 on AChE of 222 µM. The LC50 at 6 h in series [1] (setting [2]) came out at 33.6 µg/mL (≈ 91.6 µM). Also, the LC50 at 12 h in series [1] (setting [3]) stood at 16 µg/mL (≈ 43.6 µM). Moreover, in the series with T. cinnabarinus (setting [4]), the LC50 worked out at 529 µg/mL (≈ 1440 µM).

As for `COc1cc2ccc(=O)oc2cc1OS(=O)(=O)c1ccc(Br)cc1` [Compound 4e], on AChE, the IC50 is 343 µM. Moreover, the LC50 at 6 h in series [1] (setting [2]) worked out at 157 µg/mL (≈ 382 µM). The LC50 at 12 h in series [1] (setting [3]) stood at 89.8 µg/mL (≈ 218 µM). Moreover, the LC50 in the series with T. cinnabarinus (setting [4]) was 636 µg/mL (≈ 1550 µM).

The molecule `COc1cc2ccc(=O)oc2cc1OS(=O)(=O)c1ccc(C(F)(F)F)cc1` [Compound 4f] gave an IC50 on AChE of 420 µM. Besides, the LC50 at 6 h in series [1] (setting [2]) is 109 µg/mL (≈ 272 µM). Besides, the LC50 at 12 h in series [1] (setting [3]) worked out at 75.6 µg/mL (≈ 189 µM). The LC50 in the series on T. cinnabarinus (setting [4]) was 441 µg/mL (≈ 1100 µM).

For the molecule `COc1cc2ccc(=O)oc2cc1OS(=O)(=O)c1ccc([N+](=O)[O-])cc1` [Compound 4g], the IC50 at AChE was 353 µM. Moreover, the LC50 at 6 h in series [1] (setting [2]) was 46.7 µg/mL (≈ 124 µM). The LC50 at 12 h in series [1] (setting [3]) amounted to 25.6 µg/mL (≈ 67.8 µM). The LC50 in the series with T. cinnabarinus (setting [4]) was 183 µg/mL (≈ 485 µM).

At AChE, `COc1cc2ccc(=O)oc2cc1OS(=O)(=O)c1cc(Cl)c(Cl)cc1Cl` [Compound 4h] had an IC50 of 421 µM. Moreover, the LC50 at 6 h in series [1] (setting [2]) amounted to 131 µg/mL (≈ 301 µM). Also, in series [1] (setting [3]), the LC50 at 12 h amounted to 125 µg/mL (≈ 287 µM). In addition, in the series on T. cinnabarinus (setting [4]), the LC50 was determined as 832 µg/mL (≈ 1910 µM).

As for `COc1cc2ccc(=O)oc2cc1OS(=O)(=O)c1cccs1` [Compound 4i], it took 432 µM to reach half-maximal inhibition against AChE (IC50). For the same molecule, the LC50 at 6 h in series [1] (setting [2]) is 76.5 µg/mL (≈ 226 µM). For the same molecule, the LC50 at 12 h in series [1] (setting [3]) amounted to 45.1 µg/mL (≈ 133 µM). For the same molecule, the LC50 with T. cinnabarinus (setting [4]) is 489 µg/mL (≈ 1450 µM).

Consider `COc1cc2ccc(=O)oc2cc1OS(=O)(=O)c1ccc2ccccc2c1` [Compound 4j], for which 148 µM corresponded to half-maximal inhibition at AChE (IC50). For the same molecule, the LC50 at 6 h in series [1] (setting [2]) is 13.6 µg/mL (≈ 35.6 µM). For the same molecule, in series [1] (abstract (equals the 12 h value), read-out: LC50 against A. salina), the LC50 at 12 h amounted to 9.36 µg/mL (≈ 24.5 µM). Moreover, the median lethal concentration (LC50) with T. cinnabarinus (setting [5]) was determined as 93 µg/mL (≈ 243 µM).

`COc1cc2cc(-c3ccc(F)cc3)c(=O)oc2cc1OS(=O)(=O)c1ccccc1` [Compound 5a] gave an IC50 against AChE of 95.2 µM. Moreover, the LC50 at 6 h in series [1] (setting [2]) came to 95.8 µg/mL (≈ 225 µM). In addition, the LC50 at 12 h in series [1] (setting [3]) came out at 55.8 µg/mL (≈ 131 µM). In addition, in the series with T. cinnabarinus (setting [5]), the LC50 was determined as 57 µg/mL (≈ 134 µM). Further, the “acaricidal toxicity relative to compound 5” value in the series with T. cinnabarinus (compared with compound 5) is on record as “approximately 2 times”.

As to `COc1ccc(S(=O)(=O)Oc2cc3oc(=O)c(-c4ccc(F)cc4)cc3cc2OC)cc1` [Compound 5b], inhibition on AChE was half-maximal at 336 µM (IC50). For the same molecule, the LC50 at 6 h in series [1] (setting [2]) amounted to 94.5 µg/mL (≈ 207 µM). Further, the LC50 at 12 h in series [1] (setting [3]) stood at 36.2 µg/mL (≈ 79.3 µM). Further, the LC50 with T. cinnabarinus (setting [4]) is 338 µg/mL (≈ 741 µM).

For the molecule `COc1cc2cc(-c3ccc(F)cc3)c(=O)oc2cc1OS(=O)(=O)c1ccc(F)cc1` [Compound 5c], the IC50 against AChE is 192 µM. Also, the LC50 at 6 h in series [1] (setting [2]) came to 94.7 µg/mL (≈ 213 µM). The LC50 at 12 h in series [1] (setting [3]) was found to be 48.6 µg/mL (≈ 109 µM). The LC50 in the series on T. cinnabarinus (setting [4]) was 94 µg/mL (≈ 212 µM).
